# Source: patent US11319318B2, “Pyridinones and isoquinolinones as inhibitors of the bromodomain BRD9” (Boehringer Ingelheim International GmbH, priority 2015, dated 2022)
# Molecular target: T1, bromodomain of BRD9 (GST-BRD9 aa 130-259) / H3 K9/14/18/23Ac(1-28) peptide (Homo sapiens, UniProt Q9H8M2)
# T1 construct: The protein corresponding to amino acids 130-259 that contains the bromodomain of BRD9; made in house; host or cells: E. coli
# T1 sequence (Q9H8M2 130-259): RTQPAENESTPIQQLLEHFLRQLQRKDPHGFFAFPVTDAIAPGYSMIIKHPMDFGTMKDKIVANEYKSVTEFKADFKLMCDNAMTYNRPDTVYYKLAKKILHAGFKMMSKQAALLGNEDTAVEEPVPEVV
# Experiment: BRD9-H3 tetra-acetylated Peptide Inhibition AlphaScreen
# Type: binding
# Source text: Biological Methods BRD9-H3 tetra-acetylated Peptide Inhibition AlphaScreen
# This assay is used to identify compounds which inhibit the interaction of the bromodomain of BRD9 with a tetra-acetylated peptide based on the sequence of histone H3 (H3 K9/14/18/23Ac (1-28)).
# AlphaScreen Beads (Perkin Elmer):
# AlphaLISA Glutathione Acceptor Beads
# AlphaScreen Streptavidin Donor Beads
# The assay is done in a darkened room below 100 Lux.
# Compounds are dispensed onto assay plates using an Access Labcyte Workstation with the Labcyte Echo 550 from a DMSO solution. For the chosen highest concentration of 100 μM, 150 nl of compound solution are transferred from a 10 mM DMSO solution. […] DMSO is added such that every well has a total of 150 nl of DMSO.
# After 60 min at room temperature the signal is measured in a PerkinElmer Envision HTS Multilabel Reader using the AlphaScreen specifications from PerkinElmer.
# Each plate contains negative controls where biotinylated H3 K9/14/18/23Ac(1-28) peptide and GST-BRD9 are left out and replaced by assay buffer. Negative control values are entered as low basis value when using the software GraphPad Prism for calculations.
row,Compound,IC50
1,COc1cc(-c2cc(C)c(=O)n(C)c2C)c(OC)cc1CN1CCN(C)CC1 [Compound I-131],0.303 µM
2,COc1cc(-c2cc(C)c(=O)n(C)c2C)cc(OC)c1CN1CCN(C)CC1 [Compound I-132],0.322 µM
3,COc1cc(-c2cc(C)c(=O)n(C)c2C)ccc1CN1C[C@@H]2CC1CN2C [Compound I-133],0.387 µM
4,COc1cc(-c2cc(C)c(=O)n(C)c2C)ccc1CN1CC(OC)C1 [Compound I-134],0.394 µM
5,Cc1cc(-c2cc(C)c(=O)n(C)c2C)ccc1C1(N2CCN(C)CC2)CC1 [Compound I-135],0.851 µM
6,Cc1cc(-c2cc(C)c(=O)n(C)c2C)ccc1C(=O)N1CCN(C)CC1 [Compound I-136],1.92 µM
7,"Cc1c(-c2ccc(CN)cc2)cn(C)c(=O)c1C [Compound I-137, 5-(4-Aminomethyl-phenyl)-1,3,4-trimethyl-1H-pyridin-2-one]",0.834 µM
8,Cc1c(-c2ccc([C@H](C)N)cc2)cn(C)c(=O)c1C [Compound I-138],1.26 µM
9,Cc1c(-c2ccc([C@@H](C)N)cc2)cn(C)c(=O)c1C [Compound I-139],1.38 µM
10,Cc1cc(-c2ccc(CN)cc2)c(C)n(C)c1=O [Compound I-140],0.88 µM
11,Cc1cc(-c2ccc([C@@H](C)N)cc2)c(C)n(C)c1=O [Compound I-141],1.86 µM
12,Cc1cc(-c2ccc([C@H](C)N)cc2)c(C)n(C)c1=O [Compound I-142],1.96 µM
13,COc1cc(-c2cc(C)c(=O)n(C)c2)ccc1COC1CNC1 [Compound I-144],0.026 µM
14,COc1cc(-c2cc(C)c(=O)n(C)c2)cc(OC)c1CNC1CNC1 [Compound I-145],0.032 µM
15,CNC1CN(Cc2c(OC)cc(-c3cc(C)c(=O)n(C)c3)cc2OC)C1 [Compound I-146],0.033 µM
16,COc1cc(S(=O)(=O)N2CCNCC2)c(OC)cc1-c1cc(C)c(=O)n(C)c1 [Compound I-147],0.126 µM
17,COc1cc(-c2cc(C)c(=O)n(C)c2)ccc1S(=O)(=O)N1CCNCC1 [Compound I-148],0.144 µM
18,"Cc1cc(-c2ccc(CN3CCNCC3)c(N(C)C)c2)cn(C)c1=O [Compound I-149, 5-(3-Dimethylamino-4-piperazin-1-ylmethyl-phenyl)-1,3-dimethyl-1H-pyridin-2-one]",0.16 µM
19,COc1cc(-c2cc(C)c(=O)n(C)c2)c(OC)cc1CN1CCNCC1 [Compound I-150],0.298 µM
20,COc1cc(S(=O)(=O)NC2CNC2)c(OC)cc1-c1cn(C)c(=O)c(C)c1C [Compound I-151],0.026 µM
21,CNCCN(C)S(=O)(=O)c1cc(OC)c(-c2cn(C)c(=O)c(C)c2C)cc1OC [Compound I-152],0.145 µM
22,COc1cc(-c2cc(C)c(=O)n(C)c2C)ccc1COC1CNC1 [Compound I-153],0.029 µM
23,COc1cc(S(=O)(=O)NC2CNC2)c(OC)cc1-c1cc(C)c(=O)n(C)c1C [Compound I-154],0.038 µM
24,CNCCN(C)S(=O)(=O)c1cc(OC)c(-c2cc(C)c(=O)n(C)c2C)cc1OC [Compound I-155],0.128 µM
25,COc1cc(-c2cc(C)c(=O)n(C)c2C)c(OC)cc1CN1CCNCC1 [Compound I-156],1.78 µM

row,Compound,IC50
1,"CCc1cc(-c2cc(C)c(=O)n(C)c2)cc(OC)c1C(=O)N1CCNCC1 [Compound I-157, 5-[3-Ethyl-5-methoxy-4-(piperazine-1-carbonyl)-phenyl]-1,3-dimethyl-1H-pyridin-2-one]",0.089 µM
2,COc1cc(-c2cc(C)c(=O)n(C)c2)cc(C)c1C(=O)N1CCNCC1 [Compound I-159],0.167 µM
3,Cc1cc(C(=O)N2CCNCC2)ccc1-c1cc(C)c(=O)n(C)c1 [Compound I-163],0.55 µM
4,"COc1cc(-c2cc(I)c(=O)n(C)c2)ccc1C(=O)N1CCNCC1 [Compound I-164, 3-Iodo-5-[3-methoxy-4-(piperazine-1-carbonyl)-phenyl]-1-methyl-1H-pyridin-2-one]",0.064 µM
5,COc1cc(-c2cc(I)c(=O)n(C)c2)ccc1C(=O)N1CCN(C)CC1 [Compound I-166],0.23 µM
6,COc1cc(-c2cn(C)c(=O)c(I)c2C)cc(OC)c1CN(C)C [Compound I-167],0.041 µM
7,COc1cc(-c2cc(I)c(=O)n(C)c2C)cc(OC)c1CN(C)C [Compound I-168],0.04 µM
8,"Cc1cc(-c2ccc(C(=O)N3CCN(C)CC3)c(OC(F)(F)F)c2)cn(C)c1=O [Compound I-177, 1,3-Dimethyl-5-[4-(4-methyl-piperazine-1-carbonyl)-3-trifluoromethoxy-phenyl]-1H-pyridin-2-one]",1.32 µM
9,"COc1cc(-c2cc(C)c(=O)n(C)c2)ccc1CN1CC(Cl)C1 [Compound I-178, 5-[4-(3-Chloro-azetidin-1-ylmethyl)-3-methoxy-phenyl]-1,3-dimethyl-1H-pyridin-2-one]",0.038 µM
10,"Cc1cc(-c2ccc(CN3CC(O)C3)cc2)cn(C)c1=O [Compound I-179, 5-[4-(3-Hydroxy-azetidin-1-ylmethyl)-phenyl]-1,3-dimethyl-1H-pyridin-2-one]",0.187 µM
11,Cc1cc(-c2ccc(CN3CCCC3)cc2)cn(C)c1=O [Compound I-180],0.87 µM
12,CNCc1ccc(-c2cc(C)c(=O)n(C)c2)cc1 [Compound I-181],1 µM
13,Cc1cc(-c2ccc(CN3CCCCC3)cc2)cn(C)c1=O [Compound I-182],1.05 µM
14,Cc1cc(-c2ccc(CN3CC4CCC3C4)cc2)cn(C)c1=O (stereo not shown) [Compound I-184],1.32 µM
15,Cc1cc(-c2ccc(Cn3ccnc3)cc2)cn(C)c1=O [Compound I-185],1.55 µM
16,"Cc1cc(-c2cc(C)c(=O)n(C)c2)c(C)cc1CN1CCNCC1 [Compound I-186, 5-(2,5-Dimethyl-4-piperazin-1-ylmethyl-phenyl)-1,3-dimethyl-1H-pyridin-2-one]",0.967 µM
17,Cc1cc(-c2cc(C)c(=O)n(C)c2)c(C)cc1CN1CCN(C)CC1 [Compound I-187],4.3 µM
18,"Cc1cc(-c2ccc(CN3CCN(C)CC3)c(O)c2)cn(C)c1=O [Compound I-194, 5-[3-Hydroxy-4-(4-methyl-piperazin-1-ylmethyl)-phenyl]-1,3-dimethyl-1H-pyridin-2-one]",0.458 µM
19,"COCCOc1cc(-c2cc(C)c(=O)n(C)c2)ccc1CN1CCN(C)CC1 [Compound I-195, 5-[3-(2-Methoxy-ethoxy)-4-(4-methyl-piperazin-1-ylmethyl)-phenyl]-1,3-dimethyl-1H-pyridin-2-one]",0.369 µM
20,Cc1cc(-c2ccc(CN3CCN(C)CC3)c(OC(C)C)c2)cn(C)c1=O [Compound I-196],1.01 µM
21,"CCOc1cc(-c2cc(C)c(=O)n(C)c2)ccc1CN1CCN(C)CC1 [Compound I-197, 5-[3-Ethoxy-4-(4-methyl-piperazin-1-ylmethyl)-phenyl]-1,3-dimethyl-1H-pyridin-2-one]",0.468 µM
22,"COc1cc(-c2cc(C)c(=O)n(C)c2)ccc1CN1CCN(Cc2cccc(N)c2)CC1 [Compound I-198, 5-{4-[4-(3-Amino-benzyl)-piperazin-1-ylmethyl]-3-methoxy-phenyl}-1,3-dimethyl-1H-pyridin-2-one]",0.071 µM
23,COc1cc(-c2cc(C)c(=O)n(C)c2)ccc1CN1CCN(Cc2ccc3nc[nH]c3c2)CC1 [Compound I-199],0.055 µM
24,COc1cc(-c2cc(C)c(=O)n(C)c2)ccc1CN1CCN(Cc2cccc(O)c2)CC1 [Compound I-200],0.132 µM
